Laboratory results from article PMC11202288, “The Structural Basis of the Activity Cliff in Modafinil-Based Dopamine Transporter Inhibitors” (Biomolecules, 2024).
Read-outs that look alike come from different tables or passages of the source.

Biological target: T1, hDAT (human dopamine transporter) (Homo sapiens, UniProt Q01959)
T1 construct: gene SLC6A3; full-length human DAT stably expressed in HEK293 cells; membrane preparation
Assay: [3H]WIN35, […] competition binding, HEK293-hDAT membranes

[1] = read-out: hDAT Ki ± SEM (nM) ^a (n)

T1 sequence (Q01959 whole entry): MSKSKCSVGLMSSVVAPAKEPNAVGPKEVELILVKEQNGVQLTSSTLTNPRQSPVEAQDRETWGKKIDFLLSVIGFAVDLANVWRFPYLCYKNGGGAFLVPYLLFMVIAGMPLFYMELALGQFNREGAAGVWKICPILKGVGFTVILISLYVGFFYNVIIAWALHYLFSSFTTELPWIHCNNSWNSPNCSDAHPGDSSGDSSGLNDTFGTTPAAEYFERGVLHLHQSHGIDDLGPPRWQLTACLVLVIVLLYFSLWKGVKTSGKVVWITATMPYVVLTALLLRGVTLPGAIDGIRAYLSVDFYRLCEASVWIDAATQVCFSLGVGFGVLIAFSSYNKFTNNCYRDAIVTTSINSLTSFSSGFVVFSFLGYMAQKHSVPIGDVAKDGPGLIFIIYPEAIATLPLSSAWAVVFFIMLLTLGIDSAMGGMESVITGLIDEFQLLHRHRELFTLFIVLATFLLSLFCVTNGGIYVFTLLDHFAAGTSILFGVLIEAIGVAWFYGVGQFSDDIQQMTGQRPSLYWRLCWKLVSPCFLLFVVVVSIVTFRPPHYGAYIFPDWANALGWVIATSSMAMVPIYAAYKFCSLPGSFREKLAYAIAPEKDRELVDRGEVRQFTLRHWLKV

SMILES	Ki [1] [nM]	Ki [nM]
CC(O)CN1CCN(CCSC(c2ccc(F)cc2)c2ccc(F)cc2)CC1 (stereo not drawn) [JJC8-089]	69.1 ± 10.5	
CC(O)CN1[C@H](C)CN(CCSC(c2ccc(F)cc2)c2ccc(F)cc2)C[C@@H]1C (stereo partly drawn) [RDS3-094]		50.1 ± 6.51
CC(O)CN1[C@H](C)CN(CC[S+]([O-])C(c2ccc(F)cc2)c2ccc(F)cc2)C[C@@H]1C (stereo partly drawn) [RDS4-010]	1570 ± 186	
